Holding throughout (assay type): cell-based
In series [1] the test system is Enterovirus EV-71 (BrCr strain). The series is described as follows: Anti-enterovirus activity, EV-71 virus yield reduction (qRT-PCR) in RD cells. To be noted: 0.1 MOI, 2 days post-treatment. The method, then:
Compounds are tested for cytotoxicity using a MTS (3-(4,5-dimethylthiazol-2-yl)-5-(3-carboxymethoxyphenyl)-2-(4-sulfophenyl)-2H-tetrazolium) method and the CC50 (IC50) values (cytotoxic concentrations of drug required to reduce cell viability by 50%) are determined for each test compound in human rhabdomyosarcoma (RD) cell line. In addition, the maximum non-toxic concentrations (MNTC) are also determined for each compound. To avoid potential drug toxicity that would interfere with viral cytopathic effect (CPE), compounds are evaluated at nontoxic concentrations. The resultant inhibitory effect of each test compound is calculated as a percentage of decrease in EV-71 CPE. Briefly, a monolayer of RD cells is prepared in a 96-well plates. The cells are then infected with 1 MOI of EV-71 (BrCr strain) followed by treatment with a single non-toxic dose of each compound in triplicate. The vehicle control wells are treated with 0.1% DMSO diluted in the working media. The plate is then incubated for 48 h at which time the virus-control wells produced detectable CPE. To determine the probable CPE inhibitory effect of test compounds, an MTS assay is performed and effective compounds are chosen for further studies to identify the potency of the compounds and their concentration-dependent manner. The dose-response antiviral activity of each compound is determined by a virus yield reduction assay method. Briefly, confluent monolayers of RD cells in 96-wells microplate are infected with 0.1 MOI of EV-71 followed by treatment with compounds. Effective compounds are further quantified and confirmed with a virus-yield-reduction assay using an optimized in house qRT-PCR to determine the EV-71 RNA copy number after 2 days post-treatment from collected supernatants. qRT-PCR is performed using the EV-71 specific probe/primer mix and qScript-Tough master mix (Quantibio, USA). Quantitative PCR measurement was performed using StepOnePlus real time PCR system ([…]) according to manufacturer's protocol. The median effective concentration (EC50) and the concentration with 90% of inhibitory effect (EC90) are calculated using GraphPad PRISM for Windows, version 5 (GraphPad Software Inc., San Diego, CA, 2005) as the means±standard deviation (SD) of the mean from triplicate assay from three independent experiments.

Series [2] deals with human rhabdomyosarcoma (RD) cell line. In words: Cytotoxicity (MTS) in RD cells. How it is done: Compounds are tested for cytotoxicity using a MTS (3-(4,5-dimethylthiazol-2-yl)-5-(3-carboxymethoxyphenyl)-2-(4-sulfophenyl)-2H-tetrazolium) method and the CC50 (IC50) values (cytotoxic concentrations of drug required to reduce cell viability by 50%) are determined for each test compound in human rhabdomyosarcoma (RD) cell line. In addition, the maximum non-toxic concentrations (MNTC) are also determined for each compound. To avoid potential drug toxicity that would interfere with viral cytopathic effect (CPE), compounds are evaluated at nontoxic concentrations. The resultant inhibitory effect of each test compound is calculated as a percentage of decrease in EV-71 CPE. Briefly, a monolayer of RD cells is prepared in a 96-well plates. The cells are then infected with 1 MOI of EV-71 (BrCr strain) followed by treatment with a single non-toxic dose of each compound in triplicate. The vehicle control wells are treated with 0.1% DMSO diluted in the working media. […] The dose-response antiviral activity of each compound is determined by a virus yield reduction assay method. Briefly, confluent monolayers of RD cells in 96-wells microplate are infected with 0.1 MOI of EV-71 followed by treatment with compounds. […] Quantitative PCR measurement was performed using StepOnePlus real time PCR system ([…]) according to manufacturer's protocol.

Series [3] is described as follows: Cellular toxicity assay in Huh7 cells. To be noted: human, read-out: Cytotoxicity, CC50, Huh7.
Series [4] deals with HCoV (OC43). In words: In vitro assay for HCoV (OC43), virus yield reduction in Huh7 cells. To be noted: for inhibition at 10 µM: Betacoronavirus 1, OC43, Huh-7, 10 μM. The text has this:
In order to determine the potential effect of each selected compound against in vitro replication of SARS-CoV-2 in Vero cells or HCoV (OC43) in Huh7 cells, a confluent cell monolayer in a 96-wells cell culture microplate can be infected at a multiplicity of infection (MOI) of 0.1 and treated with a maximum non-toxic concentration (MNTC) of each compound. To assess the antiviral activity, a virus yield reduction assay using specific qRT-PCR for each virus can be performed.
Dose-Dependent Antiviral Assay. The antiviral effect of each compound selected through the antiviral evaluation assay can be further confirmed by virus yield reduction assay using the optimized qRT-PCR by measuring the RNA copy number for each virus in the supernatant of treated-infected cells. A positive control, such as remdesivir, can be used for each assay.
Statistical analysis. The half-maximal effective concentration (EC50) and the concentration with 90% of inhibitory effect (EC90) can be calculated using GraphPad PRISM for Windows, version 5 (GraphPad Software Inc., San Diego, CA, 2005) or the Chou and Talalay Method.
These methods were used to evaluate certain of the compounds described herein.

Series [5] can be described thus: Cellular toxicity assay in Vero cells. To be noted: African green monkey, read-out: Cytotoxicity, CC50, VERO. How it is done: (§1) The toxicity of the compounds was assessed in Vero, human PBM, CEM (human lymphoblastoid), MT-2, and HepG2 cells, as described previously (see Schinazi R. F., Sommadossi J.-P., Saalmann V., Cannon D. L., Xie M.-Y., Hart G. C., Smith G. A. & Hahn E. F. Antimicrob. Agents Chemother. 1990, 34, 1061-67). Cycloheximide was included as positive cytotoxic control, and untreated cells exposed to solvent were included as negative controls. The cytotoxicity CC50 was obtained from the concentration-response curve using the median effective method described previously (see Chou T.-C. & Talalay P. Adv. Enzyme Regul. 1984, 22, 27-55; Belen'kii M. S. & Schinazi R. F. Antiviral Res. 1994, 25, 1-11).

In series [6] the test system is SARS-CoV-2. The series is described as follows: microbe, parasite or virus in culture. To be noted: for inhibition at 10 µM: read-out: SARS-CoV-2 Inhibition at 10 μM (%).
The nature of series [7]: Cellular toxicity assay in CEM cells. To be noted: human, CEM lymphoblastoid cells, read-out: Cytotoxicity, CC50, CEM. The method, then:
as §1

[8] abbreviates: Severe acute respiratory syndrome coronavirus 2, 10 μM, Vero cells.
The mark [9] stands for this setting: Severe acute respiratory syndrome coronavirus 2, Vero.

The structures appear in SMILES notation. Read-outs that look alike come from different tables or passages of the source.

With `Cc1cc(C(=O)N[C@@H](Cc2cccc3ccccc23)C(=O)N[C@@H](CC(C)C)C(=O)NC(C=O)C[C@@H]2CCCNC2=O)no1` (some centres unmarked), the EC50 in series [1] (read-out: EC50 against Enterovirus EV-71 (BrCr strain)) is 0.0085 µM. For the same compound, the EC90 in series [1] (read-out: EC90 against Enterovirus EV-71 (BrCr strain)) was 0.0214 µM. Besides, the CC50 in series [2] was > 100 µM.

As for `CC(C)C[C@H](NC(=O)[C@H](Cc1ccc(F)cc1)NC(=O)OCc1ccccc1)C(=O)N[C@H](C=O)C[C@@H]1CCCNC1=O` [Compound 35, Benzyl ((S)-3-(4-fluorophenyl)-1-(((S)-4-methyl-1-oxo-1-(((S)-1-oxo-3-((S)-2-oxopiperidin-3-yl)propan-2-yl)amino)pentan-2-yl)amino)-1-oxopropan-2-yl)carbamate], the CC50 was 60 µM in series [3] and > 100 µM in series [5]. In addition, the results for the inhibition at 10 µM in series [4] and in series [6] (setting [8]) were 99.9% and 99.8%, respectively.

Consider `CC(C)C[C@H](NC(=O)[C@H](Cc1cccc2ccccc12)NC(=O)OCc1ccccc1)C(=O)N[C@@H](C[C@@H]1CCCNC1=O)C(O)S(=O)(=O)O` (stereo partly drawn) [Compound 37, Sodium (5S,8S, 11S)-12-hydroxy-8-isobutyl-5-(naphthalen-1-ylmethyl)-3,6,9-trioxo-11-(((S)-2-oxopiperidin-3-yl)methyl)-1-phenyl-2-oxa-4,7,10-triazadodecane-12-sulfonate], for which the inhibition at 10 µM in series [4] and in series [6] (setting [9]) was 99.9% in each case. In addition, the EC50 in series [6] (Severe acute respiratory syndrome coronavirus 2, Vero cells, unit inferred, read-out: Activity against SARS-CoV-2 EC50) was 0.3 µM. In addition, in series [6] (Severe acute respiratory syndrome coronavirus 2, Vero cells, unit inferred, read-out: Activity against SARS-CoV-2 EC90), the EC90 worked out at 4.5 µM.

Consider `CC(C)C[C@H](NC(=O)[C@H](Cc1cccc2ccccc12)NC(=O)OCc1ccccc1)C(=O)N[C@@H](C[C@@H]1CCCNC1=O)C(O)C(F)(F)F` (stereo partly drawn) [Compound 38, Benzyl ((2S)-1-(((2S)-4-methyl-1-oxo-1-(((2S)-4,4,4-trifluoro-3-hydroxy-1-((S)-2-oxopiperidin-3-yl)butan-2-yl)amino)pentan-2-yl)amino)-3-(naphthalen-1-yl)-1-oxopropan-2-yl)carbamate], for which the inhibition at 10 µM in series [4] amounted to 95%; in series [6] (setting [8]), 85.1%. The CC50 in series [7] turned out to be 6 µM.

As for `CC(C)C[C@H](NC(=O)[C@H](Cc1cccc2ccccc12)NC(=O)OCc1ccccc1)C(=O)N[C@@H](C[C@@H]1CCCNC1=O)C(=O)C(F)(F)F` [Compound 39, Benzyl ((S)-1-(((S)-4-methyl-1-oxo-1-(((S)-4,4,4-trifluoro-3-oxo-1-((S)-2-oxopiperidin-3-yl)butan-2-yl)amino)pentan-2-yl)amino)-3-(naphthalen-1-yl)-1-oxopropan-2-yl)carbamate], the inhibition at 10 µM in series [4] was found to be 99.4%; in series [6] (setting [8]), 68%.

As for `Cc1cc(C(=O)NC(CC(C)C)C(=O)N[C@H](C=O)C[C@@H]2CCCNC2=O)no1` (some centres unmarked) [Compound 43], the inhibition at 10 µM in series [4] and in series [6] (setting [9]) was 99.9% throughout.

In the case of `CCOC(=O)/C=C/[C@H](C[C@@H]1CCCNC1=O)NC(=O)C(CC(C)C)NC(=O)[C@H](Cc1cccc2ccccc12)NC(=O)c1cc(C)on1` (some centres unmarked) [Compound 44], the inhibition at 10 µM in series [4] is 99.7%; in series [6] (setting [9]) it was 99.5%.

For the compound `CC(C)C[C@H](NC(=O)[C@H](Cc1cccc2ccccc12)NC(=O)OCc1ccccc1)C(=O)N[C@@H](C[C@@H]1CCCNC1=O)[C@@H](O)C#N` [Compound 128, Benzyl ((S)-1-(((S)-1-(((1R,2S)-1-cyano-1-hydroxy-3-((S)-2-oxopiperidin-3-yl)propan-2-yl)amino)-4-methyl-1-oxopentan-2-yl)amino)-3-(naphthalen-1-yl)-1-oxopropan-2-yl)carbamate], the results for the inhibition at 10 µM in series [4] and in series [6] (setting [9]) were 100% and 99.9%, respectively.

On to `CC(C)C[C@H](NC(=O)[C@H](Cc1cccc2ccccc12)NC(=O)OCc1ccccc1)C(=O)N[C@@H](C[C@@H]1CCCNC1=O)[C@H](O)C#N` [Compound 129, benzyl ((S)-1-(((S)-1-(((1S,2S)-1-cyano-1-hydroxy-3-((S)-2-oxopiperidin-3-yl)propan-2-yl)amino)-4-methyl-1-oxopentan-2-yl)amino)-3-(naphthalen-1-yl)-1-oxopropan-2-yl)carbamate], for which the “OC43 Inhibition at 10 μM (%)” value in series [4] (10 μM) is 99.9%. Besides, in series [6] (10 μM, Vero cells), the “SARS-CoV-2 Inhibition at 10 μM (%)” value is given as 99.9%.

Consider `CC(C)CC(NC(=O)[C@H](Cc1cccc2ccccc12)NC(=O)OCc1ccccc1)C(=O)N[C@@H](C[C@@H]1CCNC1=O)C1OCCO1` (some centres unmarked) [Compound 136], for which the inhibition at 10 µM was determined as 99.3% in series [4] and 99.8% in series [6] (setting [9]).

(Values after patent US12268723B2, “Peptidomimetics for the treatment of coronavirus and picorna virus infections” (priority 2019, dated 2025).)
